Measured values reported in PMC6395531 (Journal of medicinal chemistry, 2019).

Columns and labels:
[1] = Caco-2 bidirectional permeability; assay type: in vitro ADME; conditions: Table 3
[2] = Pharmacokinetics of 29 in rats; conditions: male, Sprague-Dawley, rat, in vivo
[3] = test system: Salmonella typhimurium (TA98, TA100, TA1535, TA1537) and Escherichia coli (WP2 uvrA); assay: Bacterial reverse mutation assay; conditions: presence and absence of S9; monotartaric salts; 1.5 to 5000 μg/plate

Row | Compound | Caco-2 cells A-B [1] | AUC(0-inf) ([2]; iv, 1 mg/kg) | AUC(0-inf) ([2]; po, 2 mg/kg) | mutagenicity in the TA1537 strain (Ames assay) [3]
1 | Cc1ccc2nc(N3CCC(NC4CCOCC4)CC3)c(-c3nc(C)no3)cc2c1 [Compound 29, 1-(6-methyl-3-(3-methyl-1,2,4-oxadiazol-5-yl)quinolin-2-yl)-N-(tetrahydro-2H-pyran-4-yl)piperidin-4-amine] | 26.2 ×10⁻⁶ cm/s | 212 ng·h/mL | 28.4 ng·h/mL | –
2 | CCc1ccc2nc(N3CCC(N[C@@H](C)C(C)C)CC3)c(-c3nc(C)no3)cc2c1 [Compound 33, (S)-1-(6-ethyl-3-(3-methyl-1,2,4-oxadiazol-5-yl)quinolin-2-yl)-N-(3-methylbutan-2-yl)piperidin-4-amine] | – | – | – | showed a mutagenic response in the TA1537 strain but only in the absence of S9
3 | CCc1ccc2nc(N3CCC(N[C@H]4CCCC[C@@H]4O)CC3)c(-c3nc(C)no3)cc2c1 [Compound 34, (1S,2S)-2-((1-(6-ethyl-3-(3-methyl-1,2,4-oxadiazol-5-yl)quinolin-2-yl)piperidin-4-yl)amino)cyclohexanol] | – | – | – | exhibited mutagenicity in the TA1537 strain in the presence and absence of S9
4 | CCc1ccc2nc(N3CCC(NCC4(C)COC4)CC3)c(-c3nc(C)no3)cc2c1 [Compound 35, 1-(6-ethyl-3-(3-methyl-1,2,4-oxadiazol-5-yl)quinolin-2-yl)-N-((3-methyloxetan-3-yl)methyl)piperidin-4-amine] | – | – | – | exhibited mutagenicity in the TA1537 strain in the presence and absence of S9
5 | CCc1ccc2nc(N3CCC(N[C@@H]4CCCOC4)CC3)c(-c3nc(C)no3)cc2c1 [Compound 36, (R)-1-(6-ethyl-3-(3-methyl-1,2,4-oxadiazol-5-yl)quinolin-2-yl)-N-(tetrahydro-2H-pyran-3-yl)piperidin-4-amine] | – | – | – | showed a mutagenic response in the TA1537 strain but only in the absence of S9
